From patent US10961233B2 (LIFEARC, priority 2016, dated 2021) come the findings set out here.

Structures are written as SMILES.

One experiment has as its target WT full length PAICS (Homo sapiens (Human), UniProt P22234). Kind of experiment: Biochemical assay to measure PAICS activity (Transcreener ADP2 FI). As to conditions: SAICAR synthetase reaction, ADP detection, 30 min pre-incubation. The source says: Biochemical Assay to Measure PAICS Activity
The biochemical assay was used to measure PAICS SAICAR synthetase-mediated conversion of CAIR, aspartic acid and ATP to SAICAR, ADP and inorganic phosphate (Pi), post-AIR/CAIR equilibration (see FIG. 3). This was achieved by detecting the ADP generated during the reaction, using Bellbrook Lab's Transcreener ADP^2 FI assay. An increase in the fluorescence intensity is directly proportional to the amount of PAICS activity.
The Transcreener ADP^2 FI assay is a homogeneous competitive displacement fluorescence intensity assay which uses direct immunodetection of ADP. Displacement of the tracer by ADP causes an increase in the fluorescence at excitation 590 nm and emission 617 nm (FIG. 3).
5 μl WT full length PAICS (final assay concentration, fac, 2.5 nM) in basic buffer, added to black, non-binding, 384-well plates (Corning #3575), columns 1 to 22. 5 μl basic buffer was added to columns 23+24 (negative control). PAICS stock at 31.9 μM from the PI's lab (Steve Firestine). Basic buffer contained 50 mM Tris-HCl pH8 and 0.5 mM EDTA, fac.
1 μl compound in 100% DMSO added per well, or 1 μl 100% DMSO to positive controls (columns 1+2) and negative controls (columns 23+24). Final assay top concentration of compound either 1 mM or 30-μM, serially diluted with half-log dilutions across the plate in duplicate (one 10-point concentration response curve across wells 3 to 12, another across 13 to 22). Compounds pre-incubated with PAICS enzyme for 30 mins at RT. 2 μl CAIR added (fac 10 μM) in basic buffer plus 25 mM MgCl2 and 50 mM KHCO3 fac to all wells. CAIR stock 50 mM from Steve Firestine's lab. 1 hr RT incubation for AIR-CAIR equilibration. NB: ˜50% CAIR is decarboxylated during equilibration therefore 5 μM remains for the synthetase reaction.
2 μl ATP/aspartic acid added (fac 30 μM/180 μM) in reaction buffer to all wells. 30 mins RT incubation for appropriate level of ATP turnover. Reaction buffer contained basic buffer plus 10 mM DTT, 0.01% BSA and 0.01% Brij 35, fac.
10 μl ADP detection reagent added to all wells (as per instructions, Transcreener ADP^2 FI kit, BellBrook Labs #3013-10K). Incubation for 1 h at RT to allow antibody equilibration. Fluorescence intensity determined using a Tecan Safire2 (excitation at 590 nm, emission at 617 nm).

In experiment [1] the test system is LM2 and MDA-MB-231 breast cancer cell lines. The experiment is described as follows: PAICS 2D cell proliferation assay (CellTiter-Glo viability, 72 h). The class given is cell-based. As to conditions: Homo sapiens; 72 h incubation; cell line not given. How it is done: PAICS 2D Cell Proliferation Assay
Frozen cryovial stocks of LM2 and MDA-MB-231 breast cancer cell lines were thawed and cultured in 4.5 g/L glucose DMEM (31966-047, Invitrogen) supplemented with 10% Fetal Bovine Serum (10500-064, Invitrogen) until confluent in a T175 flask. Cells were incubated at 37° C. with 5% CO2 in a humidified incubator.
Cells were collected from T175 flasks by washing with PBS (10010-056, Invitrogen) and dissociated using Accutase (A6964, Sigma Aldrich). This was followed by centrifuging (1200 rpm, 5 min) and resuspending the cells in 10 ml of media containing 1% penicillin/streptomycin (15140-122, Invitrogen). Cells were counted by trypan blue exclusion method using an automated cell counter (Cellometer) and diluted to a concentration of 40,000/ml. 1000 cells were then seeded into 384-well white-walled plates (Corning, 3707) in a volume of 25 μl. Plates were Incubated overnight at 37° C. with 5% CO2.
After 24 hours, PAICS compounds were added onto the assay plates using an HP D300 Digital Dispenser (Hewlett Packard). 10 mM stocks were used and dispensed as a 10 point concentration response curve (CRC) ½ log dilution series with a final top concentration of 100 μM. Controls were added onto each plate: positive controls included Staurosporine CRC (100 μM stock dispensed as a 10 point CRC ½ log dilution series with a final top concentration of 1 μM) and PAICS compound MRT00211919 (10 mM stock dispensed as a 10 point CRC ½ log dilution series with a final top concentration of 100 μM); a high control of Staurosporine (0.1 μM (LM2), 0.316 μM (MDA-MB-231) FAC) and a low control of media containing 1% DMSO. A final concentration of 1% DMSO was then added across the plates for normalisation. Following compound addition, assay plates were incubated for 72 hours at 37° C. with 5% CO2.
Day 5—Cytotoxicity and Cell Viability Assays
After 72 h incubation, dead and viable cells were measured in each assay plate. Cytotoxicity was assessed through fluorescent DNA staining using the CellTox™ Green Cytotoxicity Assay kit (G8743, Promega) following the manufacturer's multiplexing protocol. Impaired cell membrane integrity results in the access of dye to stain DNA allowing quantification of dead cells. Cell viability was determined following ATP quantification using the CellTiter-Glo® Luminescent Cell Viability Assay kit (G7572, Promega) following the manufacturer's protocol. ATP released from lysed cells allowed for the generation of a signal proportional to the number of cells present in the well. All endpoint reads were performed using the PheraSTAR Plus (BMG Labtech). Data is expressed as % viable cells and % dead cells against controls (mean±SEM of duplicate curves).
Background: Cellular ATP, detected with luciferase, serves as a proxy for viable cell number.

For experiment [2], the system named is wild type LM2 and CRISPR edited LM2. The experiment is described as follows: 2D cell proliferation assay, wild type LM2 versus PAICS CRISPR edited LM2. In kind it is cell-based, human. As to conditions: LM2 cells, PAICS CRISPR edited vs wild type. How it is done: Cas9 nuclease-mediated gene editing (Sander and Joung, 2014) was performed using a CRISPR RNA guide sequence ([…], PAM: AGG) targeting exon 3 in the human PAICS gene (accession number: NM_006452).
Stable cell clones were isolated and gene disruption confirmed by DNA sequencing and the absence of PAICS cellular protein expression confirmed by Western blotting.
A small set of compounds were tested against wild type LM2 and CRISPR edited LM2 in the 2D cell proliferation assay to establish to what extent the cellular potency was driven by PAICS mediated effects. The data is shown in Table 2: compounds tested had no effect on CRISPR edited cells, confirming the on-targets effect as being PAICS mediated.

A further experiment has as its system MDA-MB-231 Dlux cells. Kind of experiment: MDA-MB-231-Dlux xenograft model. The class given is in vivo. The following applies: oral 25 mg/kg twice daily, 2 weeks, mammary fat pad implant, MF-1 nude mice. How it is done:
Evaluation of Compound 69 in MDA-MB-231-Dlux Xenograft Model
Mice were implanted with MDA-MB-231 Dlux cells in the mammary fat pad. Mice were treated with test agent, (Compound 69), standard of care control agent, docetaxel, or vehicle control, once tumours reached a mean volume of ˜100-200 mm^3. Tumours were measured every 2-3 days using electronic calipers and tumour volume estimated using the formula 0.5 (L×W^2). Treatment continued for 2 weeks. Mice were observed and body weight measured daily
MF-1 (HsdOla:MF1-Foxn1^nu)
MDA-MB-231 Dlux (Bioluminescent MDA-MD-231 variant)
Implantation Site: Mammary fat pad (1:1 matrgel/PBS)
Compound 69 (Oral 25 mg/kg twice daily)
Docetaxel (IV 5 mg/kg twice weekly)

Chain of WT full length PAICS (P22234 whole entry): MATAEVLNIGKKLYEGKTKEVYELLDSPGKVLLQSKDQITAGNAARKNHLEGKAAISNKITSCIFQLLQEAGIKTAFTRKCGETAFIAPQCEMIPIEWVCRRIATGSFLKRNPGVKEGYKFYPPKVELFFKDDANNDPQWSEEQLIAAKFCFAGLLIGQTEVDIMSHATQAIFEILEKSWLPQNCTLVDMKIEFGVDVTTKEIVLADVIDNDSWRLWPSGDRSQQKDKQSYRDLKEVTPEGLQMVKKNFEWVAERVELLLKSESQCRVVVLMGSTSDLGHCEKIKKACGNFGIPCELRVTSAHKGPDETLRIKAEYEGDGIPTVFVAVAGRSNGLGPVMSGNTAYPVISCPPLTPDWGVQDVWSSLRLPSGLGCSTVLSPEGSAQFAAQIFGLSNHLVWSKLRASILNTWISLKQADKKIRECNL

Turning to `CN(C)CCCOC(=O)N1CCN(c2ccc(Br)c(NC(=O)c3coc(N)n3)c2)CC1` [Example 24, 3-(Dimethylamino)propyl 4-(3-(2-aminooxazole-4-carboxamido)-4-bromophenyl)piperazine-1-carboxylate], the IC50 (usually the midpoint of a concentration-inhibition curve) against WT full length PAICS fell in the range of 10 to 25 nM. Moreover, in experiment [1], the EC50 – broadly, the concentration needed to bring the measured effect to its halfway point – was 100 to 250 nM. The “Potency shift: CRISPR Cell EC50/WT Cell EC50” value (from here on “Potency shift”) in experiment [2] is over 500.
The molecule `CNCCS(=O)(=O)N1CCN(c2ccc(Br)c(NC(=O)c3coc(N)n3)c2)CC1` [Example 55, 2-Amino-N-[2-bromo-5-(4-{[2-(methylamino)ethyl]sulfonyl}piperazin-1-yl)phenyl]-1,3-oxazole-4-carboxamide] showed an IC50 at WT full length PAICS of under 10 nM. In experiment [1], this molecule yielded an EC50 of under 100 nM. The “Potency shift” value in experiment [2] is over 500.
As for `CN(C)CCCS(=O)(=O)N1CCN(c2ccc(Br)c(NC(=O)c3coc(N)n3)c2)CC1` [Example 69, 2-Amino-N-(2-bromo-5-(4-(3-(dimethylamino)propylsulfonyl)piperazin-1-yl)phenyl)oxazole-4-carboxamide], at WT full length PAICS, the IC50 is under 10 nM. Moreover, the EC50 in experiment [1] was under 100 nM. Further, the “Potency shift” value in experiment [2] was over 500. In the experiment on MDA-MB-231 Dlux cells, the “growth of primary tumour” value is “statistically significant reduction in growth of primary tumour”.
With `CN1CC(COC(=O)N2CCN(c3ccc(Cl)c(NC(=O)c4coc(N)n4)c3)CC2)C1` [Example 20, (1-Methylazetidin-3-yl) methyl 4-(3-(2-aminooxazole-4-carboxamido)-4-chlorophenyl) piperazine-1-carboxylate], the IC50 against WT full length PAICS fell in the range of 10 to 25 nM. The molecule also displayed an EC50 in experiment [1] of 500 to 1000 nM.
The matching figures for `CNCCS(=O)(=O)N1CCN(c2ccc(Cl)c(NC(=O)c3coc(N)n3)c2)CC1` [Example 56, 2-Amino-N-[2-chloro-5-(4-{[2-(methylamino)ethyl]sulfonyl}piperazin-1-yl)phenyl]-1,3-oxazole-4-carboxamide]: 10 to 25 nM and 250 to 500 nM.
Regarding `CNCCCS(=O)(=O)N1CCN(c2ccc(Br)c(NC(=O)c3coc(N)n3)c2)CC1` [Example 75, 2-Amino-N-[2-bromo-5-(4-{[3-(methylamino)propyl]sulfonyl}piperazin-1-yl)phenyl]-1,3-oxazole-4-carboxamide], the IC50 against WT full length PAICS was under 10 nM. The EC50 in experiment [1] fell in the range of 100 to 250 nM.
For the molecule `Nc1nc(C(=O)Nc2cc(N3CCN(S(=O)(=O)CCCN4CCCC4)CC3)ccc2Br)co1` [Example 67, 2-Amino-N-[2-bromo-5-(4-{[3-(pyrrolidin-1-yl)propyl]sulfonyl}piperazin-1-yl)phenyl]-1,3-oxazole-4-carboxamide], the IC50 on WT full length PAICS was under 10 nM. The molecule also gave an EC50 in experiment [1] of under 100 nM.
The matching figures for `Nc1nc(C(=O)Nc2cc(N3CCN(S(=O)(=O)CCNC4CC4)CC3)ccc2Cl)co1` [Example 58, 2-Amino-N-[2-chloro-5-(4-{[2-(cyclopropylamino)ethyl]sulfonyl}piperazin-1-yl)phenyl]-1,3-oxazole-4-carboxamide]: 25 to 100 nM and 500 to 1000 nM.
Consider `CN1CC(OC(=O)N2CCN(c3ccc(Br)c(NC(=O)c4coc(N)n4)c3)CC2)C1` [Example 28, 1-Methylazetidin-3-yl 4-(3-{[(2-amino-1,3-oxazol-4-yl)carbonyl]amino}-4-bromophenyl)piperazine-1-carboxylate], for which the IC50 against WT full length PAICS fell in the range of 10 to 25 nM. This molecule gave a concentration giving a half-maximal response (EC50) in experiment [1] of 250 to 500 nM.
At WT full length PAICS, `CN1CCC(S(=O)(=O)N2CCN(c3ccc(Br)c(NC(=O)c4coc(N)n4)c3)CC2)CC1` [Example 85, 2-Amino-N-(2-bromo-5-{4-[(1-methylpiperidin-4-yl)sulfonyl]piperazin-1-yl}phenyl)-1,3-oxazole-4-carboxamide] came in with an IC50 of under 10 nM. The molecule also showed an EC50 in experiment [1] of 100 to 250 nM.
`CNCCOC(=O)N1CCN(c2ccc(Br)c(NC(=O)c3coc(N)n3)c2)CC1` [Example 25, 2-(Methylamino)ethyl 4-(3-(2-aminooxazole-4-carboxamido)-4-bromophenyl)piperazine-1-carboxylate] yielded an IC50 at WT full length PAICS of 10 to 25 nM. For the same molecule, the EC50 in experiment [1] was in the range of 100 to 250 nM.
In turn, `CN(C)CCOC(=O)N1CCN(c2ccc(Br)c(NC(=O)c3coc(N)n3)c2)CC1` [Example 23, 2-(Dimethylamino)ethyl 4-(3-(2-aminooxazole-4-carboxamido)-4-bromophenyl)piperazine-1-carboxylate] showed an IC50 against WT full length PAICS of 10 to 25 nM. In experiment [1], this molecule gave an EC50 of 100 to 250 nM. Besides, the “Potency shift” value in experiment [2] is listed as over 500.
`CC(C)NCCS(=O)(=O)N1CCN(c2ccc(Cl)c(NC(=O)c3coc(N)n3)c2)CC1` [Example 61, 2-Amino-N-[2-chloro-5-(4-{[2-(propan-2-ylamino)ethyl]sulfonyl}piperazin-1-yl)phenyl]-1,3-oxazole-4-carboxamide] gave an IC50 against WT full length PAICS of 10 to 25 nM. The EC50 in experiment [1] lay within 100 to 250 nM.
Take `CNCCOC(=O)N1CCN(c2ccc(Cl)c(NC(=O)c3coc(N)n3)c2)CC1` [Example 31, 2-(Methylamino)ethyl 4-(3-{[(2-amino-1,3-oxazol-4-yl)carbonyl]amino}4-chlorophenyl)piperazine-1-carboxylate]: on WT full length PAICS, the IC50 is 25 to 100 nM. The molecule further had an EC50 in experiment [1] of 500 to 1000 nM.
